# Entries after “also recorded” stand apart in the source; their conditions may differ.
# B1: ER-VP64: ER LBD fused to a VP64 activation domain (protein)
# chain: RNEMGASGDMRAANLWPSPLVIKHTKKNSPALSLTADQMVSALLDAEPPMIYSEYDPSRPFSEASMMGLLTNLADRELVHMINWAKRVPGFGDLNLHDQVHLLECAWLEILMIGLVWRSMEHPGKLLFAPNLLLDRNQGKCVEGMVEIFDMLLATSSRFRMMNLQGEEFVCLKSIILLNSGVYTFLSSTLKSLEEKDHIHRVLDKITDTLIHLMAKAGLTLQQQHRRLAQLLLILSHIRHMSNKRMEHLYNMKCKNVVPLYDLLLEMLDAHRLHAPASRMGVPPEEPSQTQLATTSSTSAHSLQTYYIPPEAEGFPNTI
# modifications: left off: large carriers
# Legend:
# [1] = tested on: E2C-TATA-luciferase reporter plasmid carrying a single E2C binding site; test: Luciferase reporter assay, E2C-TATA-luc in HeLa cells; assay type: cell-based; settings: 4-OHT
# Procedure: A, structure of ER fusion proteins. E2C, six finger protein; L, flexible peptide linker. B, fusion proteins with a single ER-LBD bind as dimers. HeLa cells were cotransfected with a C7-ER-VP64 expression vector, and the indicated TATA luciferase reporter plasmids carrying either one or two C7 binding sites. 24 h after transfection, cells were either left untreated (−), or 100 nM 4-OHT was added (+). Luciferase activity in total cell extracts was measured 48 h after transfection. Each bar represents the mean value (+/−SD) of duplicate measurements. […] C, D, regulation of transcription through a single binding site by fusion proteins with two ER-LBDs. HeLa cells were cotransfected with the indicated expression vectors and the E2C-TATA-luciferase reporter plasmid, carrying a single E2C binding site upstream of a TATA box. 4-OHT induction and measurement of luciferase activity was carried out as described in B.
# A, structure of single-chain RXR/EcR fusion proteins. B, regulation of transcription through a single binding site. HeLa cells were cotransfected with the indicated expression vectors and the E2C-TATA-luciferase reporter plasmid, carrying a single E2C binding site. 24 h after transfection, cells were either left untreated (−), or 5 μM Ponasterone A was added (+). Luciferase activity in total cell extracts was measured 48 h after transfection.
# (§1) Luciferase and βP-gal reporter assays.
# To overcome these problems, we produced two types of ER-based chimeric regulators, designed to be capable of regulating gene expression through a single binding site in a hormone-dependent manner. In the first strategy, a heterodimeric regulator was generated consisting of the engineered zinc finger protein E2C fused to an ER LBD, as well as an ER LBD fused to a VP64 activation domain (FIG. 2A). […] Addition of hormone led to a 3- to 5-fold stimulation of luciferase expression, indicating the formation of functional heterodimers. […]
# [2] = tested on: 10×N1-TATA-β-gal reporter (with B3-PR-VP16 and N1-ER-VP64) in HeLa cells; test: Dual reporter assay, β-gal; assay type: cell-based; settings: HeLa cells expressing B3-PR-VP16 and N1-ER-VP64
# From the text: (§2) RU486- and Tamoxifen-inducible promoter constructs. 10×C7-TATA, 10×B3-TATA, and 10×N1-TATA fragments were assembled from two pairs of complementary oligonucleotides each and cloned into Sac1-Xma1 linearized pGL3-Basic (Promega), upstream of the firefly luciferase coding region, creating the plasmids 10×C7-TATA-luc, 10×B3-TATA-luc, and 10×N1-TATA-luc. To generate the 10×N1-TATA-lacZ reporter construct, the lacZ coding region was excised from pβgal-Basic (Clontech) and used to replace the luciferase coding region of 10×N1-TATA-luc via Hind3-BamH1 digestion. Luciferase and βP-gal reporter assays. […] Concomitant regulation of multiple promoters. Zinc finger technology has made a large repertoire of DNA binding specificities available for use in protein engineering [[…]., and Barbas, C. F., III (1998) Proc. Natl. Acad. Sci. USA 95, 14628-14633; […]., and Barbas, C. F., III (1999) Proc. Natl. Acad. Sci. USA 96, 2758-2763; […]., and Barbas, C. F., III (2000) Proc. Natl. Acad. Sci. USA 97, 1495-1500]. The availability of different steroid hormone receptor-derived regulatory domains [Littlewood, T. D., Hancock, […]., Parker, M. G., and Evan, G. I. (1995) Nucl. […] The transfected cells were treated with either RU486 or 4-OHT and the luciferase and β-gal activities were monitored.
# hPR (aa645-914) LBD = molecular target: T1, hPR (aa645-914) LBD (Homo sapiens, UniProt P06401); test: Ligand crossreactivity on PR fusion, 10×C7-TATA-luc reporter; assay type: cell-based; settings: PR LBD fusion proteins
# T1 construct: The human PR truncated LBD (aa645-914) was amplified from PAPCMVGL914VPc′-SV; expressed in transfected cells; host or cells: HeLa cells, effector plasmid in pcDNA3.1(+)Zeo
# T1 sequence (P06401 645-914): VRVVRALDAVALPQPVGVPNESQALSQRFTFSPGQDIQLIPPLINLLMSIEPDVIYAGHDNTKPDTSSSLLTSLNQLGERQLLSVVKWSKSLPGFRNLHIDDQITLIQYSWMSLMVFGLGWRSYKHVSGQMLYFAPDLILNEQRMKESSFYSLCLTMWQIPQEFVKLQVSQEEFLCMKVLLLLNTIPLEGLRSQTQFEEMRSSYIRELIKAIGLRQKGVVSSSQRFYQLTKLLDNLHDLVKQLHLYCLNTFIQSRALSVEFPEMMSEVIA
# Procedure: as §1
# The chimeric transcriptional regulators were then tested for their ability to regulate the 10×C7-TATA-luc reporter plasmid in a hormone dependent manner. 10×C7-TATA-luc contains ten C7 binding sites [5′-GCG TGG GCG-3′] spaced by 5 nucleotides, and a TATA box, upstream of the firefly luciferase coding region. […] RU486 stimulated the activity of VP16-C7-PR 26-fold, while 4-OHT led to a 43-fold activation of VP16-C7-ER. […] The presence of a NLS in either position was not only not required, but even undesirable, since it led to an increased basal (i.e. hormone-independent) activity of the fusion constructs, presumably through increased nuclear localization. Thus, the hPR (aa645-914) and mER (aa281-599, G525R) LBDs are able to confer hormone-dependence onto the zinc finger protein C7.
# [3] = tested on: 10×B3-TATA-luc reporter (with B3-PR-VP16 and N1-ER-VP64) in HeLa cells; test: Dual reporter assay, luciferase; assay type: cell-based; settings: HeLa cells expressing B3-PR-VP16 and N1-ER-VP64
# From the text: as §2
# ER-VP64 (mouse) = ER-VP64 (mouse) (UniProt P19785); test: cell-based or functional assay
Molecule,hormone-dependent activation of E2C-TATA-luc reporter [1],β-gal reporter gene activity (10×N1-TATA-β-gal) [2],other results
"E2C-scER/18-VP64: single-chain fusion of E2C, two ER LBDs joined by 18 amino acid linker, VP64",efficiently activated,,
"E2C-scER/30-VP64: single-chain fusion of E2C, two ER LBDs joined by 30 amino acid linker, VP64",efficiently activated,,
"CC#C[C@]1(O)CC[C@H]2[C@@H]3CCC4=CC(=O)CCC4=C3[C@@H](c3ccc(N(C)C)cc3)C[C@@]21C [RU486, 11β-(4-dimethylaminophenyl)-17β-hydroxy-17α-propinyl-4,9-e stradiene-3-one]",,no effect,
4-hydroxytamoxifen [4-OHT],,efficiently activated,crossreactivity between 4-OHT and PR (hPR (aa645-914) LBD): no detectable crossreactivity; also recorded: no detectable crossreaction; luciferase expression (10×B3-TATA-luc) [3]: did not affect
E2C-ER (from UniProt P19785 281-599),,,"luciferase expression from the E2C-TATA-luc reporter (single E2C site) in HeLa cells, stimulation by 4-OHT (ER-VP64 (mouse)): 3 to 5 fold"
B1,inactive,,

# Reference: patent publication US7011972B2, “Fusion polypeptide comprising two ligand binding domains” (The Scripps Research Institute, priority 2000, dated 2006)
